These results are taken from ChEMBL document CHEMBL5154829, “Discovery and biological evaluation of tanshinone derivatives as potent dual inhibitors of indoleamine 2, 3-dioxygenase 1 and tryptophan 2, 3-dioxygenase” (Eur J Med Chem, 2022).

pIC50, pKi: −log10 of the molar value. Calls of active or inactive are those of the source. The rule behind the calls is not given here.

The target in series [1] is T1, Tryptophan 2,3-dioxygenase (Homo sapiens, UniProt P48775). The series can be described thus: Competitive inhibition of recombinant human TDO measured by surface plasmon resonance assay. In general terms: Surface plasmon resonance follows binding to a sensor surface in real time, without labels.
Target sequence in this assay (P48775 whole entry): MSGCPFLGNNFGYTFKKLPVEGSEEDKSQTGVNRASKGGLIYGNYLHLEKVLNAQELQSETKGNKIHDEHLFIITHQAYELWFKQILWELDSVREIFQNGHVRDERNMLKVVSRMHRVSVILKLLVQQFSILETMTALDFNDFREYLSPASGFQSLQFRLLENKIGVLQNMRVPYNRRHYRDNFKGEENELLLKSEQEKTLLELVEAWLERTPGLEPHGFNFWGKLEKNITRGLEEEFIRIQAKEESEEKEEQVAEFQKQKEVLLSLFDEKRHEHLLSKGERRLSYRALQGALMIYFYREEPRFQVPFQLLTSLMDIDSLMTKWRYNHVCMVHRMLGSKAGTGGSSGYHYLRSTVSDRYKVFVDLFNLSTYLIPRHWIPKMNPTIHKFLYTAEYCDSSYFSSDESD
Series [2] in a line: Hemolytic activity in rat RBC at 500 uM incubated for 30 mins. The settings on record: rat red blood cells (erythrocytes), read-out: Activity. It is filed as toxicity, cell-based, Erythrocyte.
The target of series [3] is T1, Tryptophan 2,3-dioxygenase. Briefly: Competitive inhibition of recombinant human TDO measured by UV/visible spectrophotometric method.
Target sequence in this assay (P48775 whole entry, looked up): as the sequence (P48775 whole entry) above
In series [4] the test system is HeLa. Briefly: Induction of apoptosis in human HeLa cells assessed as decrease in Bcl-2 expression at 1 to 10 uM measured by western blot analysis. The settings on record: dose 1-10 µM. It is filed as functional, cell-based. On the technique in general: A western blot detects proteins with antibodies after separation by electrophoresis.
Series [5] has as its system HeLa. Briefly: Induction of apoptosis in human HeLa cells assessed apoptotic cells at 5 uM measured after 12 hrs by Annexin V-FITC/PI based flow cytometry analysis. It is filed as functional.
Series [6] deals with T2, Indoleamine 2,3-dioxygenase 1 (Homo sapiens, UniProt P14902). The series can be described thus: Non-competitive inhibition of recombinant human IDO1 measured by UV/visible spectrophotometric method.
Target sequence in this assay (P14902 whole entry, looked up): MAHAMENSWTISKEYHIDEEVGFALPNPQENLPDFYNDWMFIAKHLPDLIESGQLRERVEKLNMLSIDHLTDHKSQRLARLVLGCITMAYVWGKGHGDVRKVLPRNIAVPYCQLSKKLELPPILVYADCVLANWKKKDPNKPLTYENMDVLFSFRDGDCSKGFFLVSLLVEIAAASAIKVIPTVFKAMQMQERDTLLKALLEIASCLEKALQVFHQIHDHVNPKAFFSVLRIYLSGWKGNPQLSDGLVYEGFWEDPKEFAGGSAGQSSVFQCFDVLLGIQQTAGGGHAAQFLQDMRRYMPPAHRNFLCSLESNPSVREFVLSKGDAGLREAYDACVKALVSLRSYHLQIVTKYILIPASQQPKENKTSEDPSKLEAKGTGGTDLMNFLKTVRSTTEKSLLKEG
Series [7] deals with HeLa. The series can be described thus: Induction of apoptosis in IFNgamma-stimulated human HeLa cells assessed apoptotic cells at 5 uM measured after 12 hrs by Annexin V-FITC/PI based flow cytometry analysis. It is filed as functional. Background: Flow cytometry measures light scatter and fluorescence of single cells or particles in a stream.
The test system of series [8] is HeLa. The series can be described thus: Induction of apoptosis in human HeLa cells assessed as increase in Bax expression at 1 to 10 uM measured by western blot analysis. Type of series: functional, cell-based. The following applies: dose 1-10 µM.
For series [9], the target named is T2, Indoleamine 2,3-dioxygenase 1. The series can be described thus: Inhibition of recombinant human IDO1 assessed as reduction in N-formylkynurenine formation using L-tryptophan as substrate and measured after 15 mins.
Target sequence in this assay (P14902 whole entry): as the sequence (P14902 whole entry, looked up) above
Series [10] relates to HeLa. The series can be described thus: Induction of apoptosis in human HeLa cells assessed apoptotic cells at 5 uM measured after 6 hrs by Annexin V-FITC/PI based flow cytometry analysis. Type of series: functional, cell-based.
A short description of series [11]: Cytotoxicity against human HEK-293T cells. It is filed as toxicity, cell-based.
Series [12] concerns HeLa. Briefly: Induction of apoptosis in human HeLa cells assessed as increase in Bax/Bcl-2 ratio at 1 to 10 uM measured by western blot analysis. The settings on record: dose 1-10 µM. It is filed as functional, cell-based.
Series [13] deals with T1, Tryptophan 2,3-dioxygenase. The series can be described thus: Inhibition of TDO in human HEK293 cells assessed as reduction in kynurenine formation using L-tryptophan as substrate by absorbance based analysis. It is filed as cell-based.
Target sequence in this assay (P48775 whole entry): as the sequence (P48775 whole entry) above
Series [14] addresses T2, Indoleamine 2,3-dioxygenase 1. Briefly: Non-competitive inhibition of recombinant human IDO1 measured by surface plasmon resonance assay.
Target sequence in this assay (P14902 whole entry): as the sequence (P14902 whole entry, looked up) above
The subject of series [15] is HeLa. The series can be described thus: Induction of apoptosis in human HeLa cells assessed apoptotic cells at 10 uM measured after 24 hrs by Annexin V-FITC/PI based flow cytometry analysis. It is filed as functional.
Series [16] concerns the target T2, Indoleamine 2,3-dioxygenase 1. Briefly: Inhibition of IDO1 in IFNgamma-stimulated human HeLa cells assessed as reduction in kynurenine formation using L-tryptophan as substrate by absorbance based analysis. It is filed as cell-based.
Target sequence in this assay (P14902 whole entry): as the sequence (P14902 whole entry, looked up) above
Series [17] has as its target T1, Tryptophan 2,3-dioxygenase. Briefly: Inhibition of recombinant human TDO assessed as reduction in N-formylkynurenine formation using L-tryptophan as substrate and measured after 15 mins.
Target sequence in this assay (P48775 whole entry): as the sequence (P48775 whole entry) above

As to `CC(=O)OCc1coc2c1C(=O)C(=O)c1c-2ccc2c1C=CC(=O)C2(C)C`, the values for the negative-log Ki (pKi) in [1] and in [14] were 6.14 and 6.64, respectively. Also, in series [2], the hemolysis at 0.5 h, 500 µM came to 10%. The inhibition result in series [3] and in series [6] was “Active” throughout. For the same molecule, the outcome with HeLa [4], with HeLa [8], in the series with HeLa [10] and in the series on HeLa [12] was Active. Further, the Activity was 39.9% in the series with HeLa [5], 68.6% in the series on HeLa [7] and 92.8% with HeLa [15]. The pIC50 in series [9] was 7.15; in series [11], under 5.00; in [13] it was 5.73; in [16] it was 6.57; in [17], 6.80.

For the molecule `CC1(C)C(=O)C=Cc2c1ccc1c2C(=O)C(=O)c2c(CCl)coc2-1`, the pIC50 is 6.85 in series [9], 6.47 in series [13], 6.17 in series [16] and 6.96 in series [17].

Take `CC1(C)CCCc2c1ccc1c2C(=O)C(=O)c2c(CO)coc2-1` [PRZEWAQUINONE A]: the pIC50 in series [9] is 5.97; in [13], 5.14; in series [16] it was under 5.00; in series [17], 6.35.

`Cc1coc2c1C(=O)C(=O)c1c-2ccc2c1C(=O)C(O)=CC2(C)C`: the pIC50 in [9] was 5.54; in series [13], under 5.00; in series [16] it was under 5.00; in series [17], 6.00.

In the case of `Cc1coc2c1C(=O)C(=O)c1c-2ccc2c1CC[C@H](O)C2(C)C`, the pIC50 was 5.29 in series [9], under 5.00 in series [13], under 5.00 in series [16] and 5.57 in series [17].

Regarding `C[C@H]1COC2=C1C(=O)C(=O)c1c2ccc2c1CCCC2(C)C` [CRYPTOTANSHINONE], the results for the pIC50 in [9] and in series [17] were 5.00 and 5.01, respectively.

Consider `Cc1c(Br)oc2c1C(=O)C(=O)c1c-2ccc2c1CCCC2(C)C`, for which the pIC50 in [9] and in series [17] was under 5.00 throughout.

With `CC(=O)O[C@H]1CCc2c(ccc3c2C(=O)C(=O)c2c(C)coc2-3)C1(C)C`, the pIC50 was 6.40 in series [9], 5.55 in series [13], under 5.00 in series [16] and 6.43 in series [17].

Regarding `C[C@@H](C=O)C1=C(O)C(=O)c2c(ccc3c2CCCC3(C)C)C1=O`, the pIC50 in series [9] and in series [17] was under 5.00 throughout.

As for `CC1(C)C(=O)CCc2c1ccc1c2C(=O)C(=O)c2c(CO)coc2-1`, the pIC50 in [9] is 6.80; in series [13], 5.50; in series [16] it was 6.35; in [17], 6.70.

With `CC(=O)OCc1coc2c1C(=O)C(=O)c1c-2ccc2c1CCC(=O)C2(C)C`, the negative-log IC50 (pIC50) was 5.76 in [9], 6.07 in series [13], 6.09 in series [16] and 6.17 in series [17].

For the molecule `C[C@@H](CO)C1=C(O)C(=O)c2c(ccc3c2CCCC3(C)C)C1=O`, the pIC50 in [9] and in series [17] was under 5.00 in each case.

Consider `COC(=O)c1coc2c1C(=O)C(=O)c1c-2ccc2c1C=CC(=O)C2(C)C`, for which the pIC50 in series [9] and in series [17] was under 5.00 in each case.

For the molecule `Cc1coc2c1c(=O)oc(=O)c1c3c(ccc12)C(C)(C)CCC3`, the pIC50 in [9] and in series [17] was under 5.00 each time.

With `Cc1coc2c1C(=O)C(=O)c1c-2ccc2c1C(Br)CCC2(C)C` (configuration not stated), the pIC50 in series [9] is 5.82; in series [13], 5.09; in series [16] it was under 5.00; in series [17], 6.15.

In the case of `Cc1c[nH]c2c1C(=O)C(=O)c1c-2ccc2c1CCCC2(C)C`, the pIC50 in series [9] and in series [17] was under 5.00 in each case.

Regarding `Cc1coc2c1C(=O)C(=O)c1c-2ccc2c1C=CC(=O)C2(C)C`, the pIC50 in series [9] is 6.01; in series [13] it was under 5.00; in series [16], 5.03; in series [17] it was 6.02.

As to `CC(=O)Oc1c(OC(C)=O)c2c(C)coc2c2ccc3c(c12)CCCC3(C)C`, the pIC50 in series [9] and in series [17] was under 5.00 throughout.

In the case of `CCN(CC)C(=O)c1coc2c1C(=O)C(=O)c1c-2ccc2c1C=CC(=O)C2(C)C`, the pIC50 in series [9] is 5.49; in [13], under 5.00; in [16], under 5.00; in [17] it was 5.02.

In the case of `CC1(C)C(=O)C=Cc2c1ccc1c2C(=O)C(=O)c2c(CF)coc2-1`, the pIC50 is 6.38 in series [9], 6.14 in series [13], 6.19 in series [16] and 6.24 in series [17].

Turning to `Cc1coc2c1C(=O)C(=O)c1c-2ccc2c1CC[C@H](OS(C)(=O)=O)C2(C)C`, the pIC50 in [9] is 6.09; in series [13], under 5.00; in series [16], 5.29; in series [17], 5.92.

With `CC(=O)O[C@H]1CCc2c(ccc3c2C(=O)C(=O)c2c(CO)coc2-3)C1(C)C`, the pIC50 was 6.12 in [9], 5.72 in series [13], 5.73 in [16] and 5.74 in series [17].

Turning to `CC1(C)C(=O)C=Cc2c1ccc1c2C(=O)C(=O)c2c(CO)coc2-1`, the negative logarithm of the IC50 (pIC50) in series [9] is 6.66; in series [13], 5.85; in [16], 5.59; in series [17], 6.35.

On to `CC1(C)C(=O)C=Cc2c1ccc1c2C(=O)C(=O)c2c(C=O)coc2-1`, for which the pIC50 in series [9] and in [17] was under 5.00 in each case.

With `NS(=O)(=O)NCCNc1nonc1C(=NO)Nc1ccc(F)c(Br)c1` [EPACADOSTAT], the pIC50 in series [13] was 4.98; in series [17], 4.79.

For `Cc1coc2c1C(=O)C(=O)c1c-2ccc2c1C=CCC2(C)C`, the pIC50 in series [9] and in [17] was under 5.00 throughout.

Regarding `Cc1coc2c1C(=O)C(=O)c1c-2ccc2c1C(=O)C(O)CC2(C)C` (configuration not stated), the pIC50 is 6.31 in series [9], under 5.00 in [13], under 5.00 in series [16] and 5.83 in series [17].

Take `Cc1coc2c1C(=O)C(=O)c1c-2ccc2c1CCC(=O)C2(C)C`: the pIC50 was 6.44 in series [9], under 5.00 in series [13], under 5.00 in series [16] and 6.03 in series [17].

Turning to `Cc1coc2c1C(=O)C(=O)c1c-2ccc2c1CCCC2(C)C` [TANSHINONE IIA], the pIC50 in series [9] and in series [17] was under 5.00 in each case.

As to `CC1(C)C(=O)C=Cc2c1ccc1c2C(=O)C(=O)c2c(C(=O)O)coc2-1`, the pIC50 in [9] was 5.34; in series [13], under 5.00; in series [16] it was 5.07; in series [17], under 5.00.

Consider `CC(=O)OCc1coc2c1C(=O)C(=O)c1c-2ccc2c1CC[C@H](O)C2(C)C`, for which the negative logarithm of the IC50 (pIC50) in series [9] was 6.17; in [13], 5.69; in series [16], 5.62; in [17], 5.62.

For the molecule `CC1(C)c2ccc3c(c2CC[C@@H]1O)C(=O)C(=O)c1c(CO)coc1-3`, the pIC50 in [9] was 6.23; in [13] it was 6.02; in series [16] it was 5.78; in series [17] it was 6.00.

The pKi is −log10 of the Ki, conventionally taken in molar units. For orientation: pIC50 means −log10 of the IC50, conventionally taken in molar units.
